Experimental data published in PubChem BioAssay (NCI).
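These data come from cells grown in 96-well plates and exposed to compound for 48 hours at five concentrations. TGI denotes the concentration required for complete inhibition of growth.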

Assays:
Assay in all cases: NCI anticancer screen, dose series, 48 h
SK-MEL-5 melanoma = test system: SK-MEL-5 melanoma
SK-MEL-28 melanoma = test system: SK-MEL-28 melanoma
NCI-H23 lung = test system: NCI-H23 lung
LOX IMVI melanoma = test system: LOX IMVI melanoma
HOP-92 NSCLC = test system: HOP-92 NSCLC
CAKI-1 renal = test system: CAKI-1 renal
RXF 393 renal = test system: RXF 393 renal
SNB-19 CNS = test system: SNB-19 CNS
HT29 colon = test system: HT29 colon
CCRF-CEM leukemia = test system: CCRF-CEM leukemia
BT-549 breast = test system: BT-549 breast
OVCAR-3 ovarian = test system: OVCAR-3 ovarian
MALME-3M melanoma = test system: MALME-3M melanoma
HCT-15 colon = test system: HCT-15 colon
SW-620 colon = test system: SW-620 colon
T-47D breast = test system: T-47D breast
HL-60(TB) leukemia = test system: HL-60(TB) leukemia
HCC-2998 colon = test system: HCC-2998 colon
OVCAR-4 ovarian = test system: OVCAR-4 ovarian
A498 renal = test system: A498 renal
IGROV1 ovarian = test system: IGROV1 ovarian
MCF7 breast = test system: MCF7 breast
MOLT-4 leukemia = test system: MOLT-4 leukemia
NCI-H226 lung = test system: NCI-H226 lung
UACC-257 melanoma = test system: UACC-257 melanoma
DU-145 prostate = test system: DU-145 prostate
COLO 205 colon = test system: COLO 205 colon
OVCAR-5 ovarian = test system: OVCAR-5 ovarian
TK-10 renal = test system: TK-10 renal
M14 melanoma = test system: M14 melanoma
MDA-MB-231 breast = test system: MDA-MB-231 breast
RPMI-8226 leukemia = test system: RPMI-8226 leukemia
KM12 colon = test system: KM12 colon
SR leukemia = test system: SR leukemia
SN12C renal = test system: SN12C renal
HOP-62 NSCLC = test system: HOP-62 NSCLC
UO-31 renal = test system: UO-31 renal
SF-295 CNS = test system: SF-295 CNS
SK-MEL-2 melanoma = test system: SK-MEL-2 melanoma
MDA-MB-435 = test system: MDA-MB-435
OVCAR-8 ovarian = test system: OVCAR-8 ovarian
K-562 leukemia = test system: K-562 leukemia
U251 CNS = test system: U251 CNS
NCI/ADR-RES ovarian = test system: NCI/ADR-RES ovarian
UACC-62 melanoma = test system: UACC-62 melanoma
PC-3 prostate = test system: PC-3 prostate
HS 578T breast = test system: HS 578T breast
HCT-116 colon = test system: HCT-116 colon
MDA-N = test system: MDA-N
NCI-H460 lung = test system: NCI-H460 lung
SNB-75 CNS = test system: SNB-75 CNS
SF-539 CNS = test system: SF-539 CNS
ACHN renal = test system: ACHN renal
786-0 renal = test system: 786-0 renal
A549 NSCLC = test system: A549 NSCLC
EKVX NSCLC = test system: EKVX NSCLC
SF-268 CNS = test system: SF-268 CNS
SK-OV-3 ovarian = test system: SK-OV-3 ovarian

Cc1[nH]c(=O)[nH]c(=S)c1C(=O)NC1C2CCCCC2NC2CCCCC21 (stereo unspecified)
TGI (SK-MEL-5 melanoma): 33.3 µM | TGI (SK-MEL-28 melanoma): 23.8 µM | TGI (NCI-H23 lung): 29.8 µM | TGI (LOX IMVI melanoma): 64 µM | TGI (HOP-92 NSCLC): 33.6 µM | TGI (CAKI-1 renal): 33.7 µM | TGI (RXF 393 renal): 27.6 µM | TGI (SNB-19 CNS): 29.7 µM | TGI (HT29 colon): 48 µM | TGI (CCRF-CEM leukemia): 36.2 µM | TGI (BT-549 breast): 32.8 µM | TGI (OVCAR-3 ovarian): 29.5 µM | TGI (MALME-3M melanoma): 46.8 µM | TGI (HCT-15 colon): 25.9 µM | TGI (SW-620 colon): 40.2 µM | TGI (T-47D breast): 43.8 µM | TGI (HL-60(TB) leukemia): > 100 µM | TGI (HCC-2998 colon): 84.6 µM | TGI (OVCAR-4 ovarian): 50.7 µM | TGI (A498 renal): 41.2 µM | TGI (IGROV1 ovarian): 33.2 µM | TGI (MCF7 breast): 37.2 µM | TGI (MOLT-4 leukemia): 43.9 µM | TGI (NCI-H226 lung): 33.2 µM | TGI (UACC-257 melanoma): 33.5 µM | TGI (DU-145 prostate): 26.6 µM | TGI (COLO 205 colon): 39.5 µM | TGI (OVCAR-5 ovarian): 34.1 µM | TGI (TK-10 renal): 30.6 µM | TGI (M14 melanoma): 29.6 µM | TGI (MDA-MB-231 breast): 33.1 µM | TGI (RPMI-8226 leukemia): > 100 µM | TGI (KM12 colon): 34.4 µM | TGI (SR leukemia): > 100 µM | TGI (SN12C renal): 58 µM | TGI (HOP-62 NSCLC): 32.9 µM | TGI (UO-31 renal): 26.7 µM | TGI (SF-295 CNS): 32.8 µM | TGI (SK-MEL-2 melanoma): 36.6 µM | TGI (MDA-MB-435): 20.7 µM | TGI (OVCAR-8 ovarian): 36.2 µM | TGI (K-562 leukemia): > 100 µM | TGI (U251 CNS): 27.1 µM | TGI (NCI/ADR-RES ovarian): 40.2 µM | TGI (UACC-62 melanoma): 16.3 µM | TGI (PC-3 prostate): 29.4 µM | TGI (HS 578T breast): 61.8 µM | TGI (HCT-116 colon): 31 µM | TGI (MDA-N): 34.9 µM | TGI (NCI-H460 lung): 31.6 µM | TGI (SNB-75 CNS): 32.3 µM

Cc1ccc(O)c(-c2cc(-c3cccc(Br)c3)on2)c1
TGI (SK-MEL-5 melanoma): 41.6 µM | TGI (SK-MEL-28 melanoma): 52.8 µM | TGI (NCI-H23 lung): > 100 µM | TGI (LOX IMVI melanoma): 31.5 µM | TGI (HOP-92 NSCLC): > 100 µM | TGI (CAKI-1 renal): > 100 µM | TGI (RXF 393 renal): 35.7 µM | TGI (SNB-19 CNS): > 100 µM | TGI (SF-539 CNS): > 100 µM | TGI (ACHN renal): > 100 µM | TGI (786-0 renal): > 100 µM | TGI (HT29 colon): 67.3 µM | TGI (CCRF-CEM leukemia): > 100 µM | TGI (BT-549 breast): 77.5 µM | TGI (OVCAR-3 ovarian): 51.7 µM | TGI (MALME-3M melanoma): 68.9 µM | TGI (HCT-15 colon): > 100 µM | TGI (A549 NSCLC): > 100 µM | TGI (SW-620 colon): 46.7 µM | TGI (EKVX NSCLC): > 100 µM | TGI (T-47D breast): > 100 µM | TGI (HL-60(TB) leukemia): 81.9 µM | TGI (HCC-2998 colon): 53.2 µM | TGI (OVCAR-4 ovarian): 34.6 µM | TGI (A498 renal): > 100 µM | TGI (IGROV1 ovarian): > 100 µM | TGI (MCF7 breast): 32.5 µM | TGI (MOLT-4 leukemia): > 100 µM | TGI (UACC-257 melanoma): > 100 µM | TGI (DU-145 prostate): > 100 µM | TGI (SF-268 CNS): 89.9 µM | TGI (COLO 205 colon): 37.1 µM | TGI (OVCAR-5 ovarian): > 100 µM | TGI (TK-10 renal): 43.2 µM | TGI (M14 melanoma): > 100 µM | TGI (MDA-MB-231 breast): > 100 µM | TGI (RPMI-8226 leukemia): 85.2 µM | TGI (KM12 colon): 47.2 µM | TGI (SR leukemia): 99.4 µM | TGI (SK-OV-3 ovarian): 68.6 µM | TGI (SN12C renal): 55.1 µM | TGI (HOP-62 NSCLC): > 100 µM | TGI (UO-31 renal): > 100 µM | TGI (SF-295 CNS): > 100 µM | TGI (SK-MEL-2 melanoma): 56 µM | TGI (MDA-MB-435): 50 µM | TGI (OVCAR-8 ovarian): 67.3 µM | TGI (K-562 leukemia): > 100 µM | TGI (U251 CNS): 33.7 µM | TGI (NCI/ADR-RES ovarian): > 100 µM | TGI (UACC-62 melanoma): 78.1 µM | TGI (PC-3 prostate): > 100 µM | TGI (HS 578T breast): > 100 µM | TGI (HCT-116 colon): 57.7 µM | TGI (MDA-N): 65.2 µM | TGI (NCI-H460 lung): > 100 µM | TGI (SNB-75 CNS): 86.2 µM

O=c1c(Cc2c(O)ccc3ccccc23)nnc2sc(-c3nn4c(=O)c(Cc5c(O)ccc6ccccc56)nnc4s3)nn12
TGI (NCI-H23 lung): > 100 µM | TGI (LOX IMVI melanoma): > 100 µM | TGI (HOP-92 NSCLC): > 100 µM | TGI (CAKI-1 renal): > 100 µM | TGI (RXF 393 renal): 84.4 µM | TGI (SNB-19 CNS): > 100 µM | TGI (ACHN renal): > 100 µM | TGI (786-0 renal): > 100 µM | TGI (HT29 colon): > 100 µM | TGI (CCRF-CEM leukemia): 96.3 µM | TGI (BT-549 breast): > 100 µM | TGI (OVCAR-3 ovarian): > 100 µM | TGI (MALME-3M melanoma): > 100 µM | TGI (HCT-15 colon): > 100 µM | TGI (A549 NSCLC): > 100 µM | TGI (SW-620 colon): > 100 µM | TGI (EKVX NSCLC): > 100 µM | TGI (T-47D breast): > 100 µM | TGI (HL-60(TB) leukemia): > 100 µM | TGI (HCC-2998 colon): > 100 µM | TGI (OVCAR-4 ovarian): > 100 µM | TGI (A498 renal): > 100 µM | TGI (IGROV1 ovarian): > 100 µM | TGI (MCF7 breast): > 100 µM | TGI (UACC-257 melanoma): > 100 µM | TGI (DU-145 prostate): > 100 µM | TGI (SF-268 CNS): > 100 µM | TGI (OVCAR-5 ovarian): > 100 µM | TGI (TK-10 renal): > 100 µM | TGI (M14 melanoma): > 100 µM | TGI (MDA-MB-231 breast): > 100 µM | TGI (RPMI-8226 leukemia): > 100 µM | TGI (SR leukemia): > 100 µM | TGI (SN12C renal): > 100 µM | TGI (HOP-62 NSCLC): > 100 µM | TGI (UO-31 renal): > 100 µM | TGI (SK-MEL-2 melanoma): 40.3 µM | TGI (MDA-MB-435): > 100 µM | TGI (OVCAR-8 ovarian): > 100 µM | TGI (K-562 leukemia): > 100 µM | TGI (U251 CNS): > 100 µM | TGI (NCI/ADR-RES ovarian): > 100 µM | TGI (UACC-62 melanoma): > 100 µM | TGI (PC-3 prostate): > 100 µM | TGI (HS 578T breast): > 100 µM | TGI (HCT-116 colon): > 100 µM | TGI (MDA-N): > 100 µM | TGI (SNB-75 CNS): 39.9 µM
